{"source": "patent US6348445B1", "about": "“Biologically active peptides with reduced toxicity in animals and a method for preparing same” (priority 1992, dated 2002)", "key": {"[1]": {"test": "pharmacokinetics, single intravenous dose, plasma bioassay (E. coli zone clearing)", "format": "in vivo, mice", "settings": "140 mg/kg i.v.", "description": "A pharmacokinetics study of MSI-1324 in mice using a single dose administration was conducted. Thirty-two CD-1 male mice were injected with MSI-1324 sodium with a dose of 140 mg/kg (corrected for peptide content). Terminal blood samples were obtained from 2 to 4 mice at timepoints of 0 (prior to dosing), 5, 15, 30, 60 min, 2, 4, 6, 24, and 48 hours post-dose. Plasma concentrations were estimated by bioassay.\n40 animals CD-1®BR mice (Charles River Lab) with a mean body weight of 25.6 gms at study initiation were used.\nA 14 mg/mL solution of MSI-1324 was made in saline (0.9% sodium chloride injectable USP, Baxter) corrected for peptide content.\nThirty-six mice were intravenously administered a single bolus of MSI-1324 at a dose of 140 mg/kg corrected for peptide content using an injection volume of 10 mL/kg of the 14 mg/mL solution. Four mice were not injected and supplied pre-dosing blood samples. Terminal blood samples were obtained via cardiac puncture in halothane-anesthetized mice at timepoints of 0 (prior to dosing), 5, 15, 30, 60 min, 2, 4, 6, 24, and 48 hours post-dose. Two to four mice were terminally bled at each timepoint. The blood samples were centrifuged and plasma transferred into separate tubes for bioassay analysis. The bioassay used was antibacterial zone clearing (disk diffusion) on Escherichia coli lawns."}, "[2]": {"test": "maximal tolerated dose, single intravenous administration of Compound 1324", "format": "in vivo, mice", "settings": "for Number of Survivors on Day 0: 2 or 6.5 hrs post-administration", "description": "Mice received single intravenous administrations of Compound 1324, the methane sulfonate analogue of Compound 843, and were monitored for survival for at least 4 days. There were no deaths at a dose of less than or equal to 180 mg/kg.\nTo determine the maximal tolerated dose (MTD) and estimate the lethal dose 50% (LD50) of Compound 1324 sodium when administered intravenously in a single-bolus in mice.\nAnimals: On arrival and study initiation, three groups Thirty-seven male CD-1 mice (Charles River Lab)had average body weights of 39, 28 and 28 gm, respectively.\nSolution Prep: A 120 mg/ml of active Compound 1324 (active moiety corrected for) was made in saline. All concentrations from 5 mg/ml to 80 mg/ml were dilutions of the 120 mg/ml solution with saline. The highest concentration used in the intravenous administration was 20 mg/ml.\nMice were randomly assigned to one of ten groups (4 mice per group, except the highest dose group which only had one mouse). Mice were administered intravenously 10 ml/kg of either 0 (saline), 5, 6, 7, 8, 14, 16, 18, or 20 mg/ml solution for doses of […]. One mouse received 14.1 ml/kg of a 20 mg/ml solution for a dose of 282 mg/kg. Mice were monitored for survival for at least four days post-administration."}}, "data": [{"smiles": "CCCCCCCC(=O)N[C@@H](CCCNCS(=O)(=O)O)C(=O)N[C@@H](CCCNCS(=O)(=O)O)C(=O)N[C@@H](CC(C)C)C(=O)N[C@@H](CC(C)C)C(=O)N[C@@H](CCCNCS(=O)(=O)O)C(=O)N[C@@H](CCCNCS(=O)(=O)O)C(=O)N[C@@H](CC(C)C)C(=O)N[C@@H](CCCNCS(=O)(=O)O)C(=O)N[C@@H](CCCNCS(=O)(=O)O)C(=O)N[C@@H](CC(C)C)C(N)=O", "note": "[Compound 1324]", "values": [{"measurement": "peak plasma concentration", "setting": "[1]; estimated by bioassay", "value": "approximately 600 ug/mL"}, {"measurement": "time of peak concentration post-dose", "setting": "[1]; first sampling timepoint", "value": 5, "unit": "min"}, {"measurement": "plasma concentration at 60 min post-dose", "setting": "[1]; limit of detection approximately 150 ug/mL, listed as MSI-1324", "value": "below detection limits of the assay"}, {"measurement": "level at 1 h", "setting": "[1]; male, CD-1, mouse, plasma, iv, limit of detection approximately 150 ug/mL, read-out: plasma concentration at 60 min post-dose", "value": "< 150", "unit": "µg/mL"}, {"measurement": "mice that survived", "setting": "[2]; 200 mg/kg single intravenous", "value": "Three of four"}, {"measurement": "Number of Survivors on Day 1", "setting": "[2]; IV 50 mg/kg, 4 mice", "value": 4}, {"measurement": "Number of Survivors on Day 2", "setting": "[2]; IV 50 mg/kg, 4 mice", "value": 4}, {"measurement": "Number of Survivors on Day 3", "setting": "[2]; IV 50 mg/kg, 4 mice", "value": 4}, {"measurement": "Number of Survivors on Day 4", "setting": "[2]; IV 50 mg/kg, 4 mice", "value": 4}, {"measurement": "Number of Survivors on Day 5", "setting": "[2]; IV 50 mg/kg, 4 mice", "value": 4}, {"measurement": "Number of Survivors on Day 0", "setting": "[2]; IV 50 mg/kg, 4 mice", "value": 4}, {"measurement": "Number of Survivors on Day 1", "setting": "[2]; IV 60 mg/kg, 4 mice", "value": 4}, {"measurement": "Number of Survivors on Day 2", "setting": "[2]; IV 60 mg/kg, 4 mice", "value": 4}, {"measurement": "Number of Survivors on Day 3", "setting": "[2]; IV 60 mg/kg, 4 mice", "value": 4}, {"measurement": "Number of Survivors on Day 4", "setting": "[2]; IV 60 mg/kg, 4 mice", "value": 4}, {"measurement": "Number of Survivors on Day 5", "setting": "[2]; IV 60 mg/kg, 4 mice", "value": 4}, {"measurement": "Number of Survivors on Day 0", "setting": "[2]; IV 60 mg/kg, 4 mice", "value": 4}, {"measurement": "Number of Survivors on Day 1", "setting": "[2]; IV 70 mg/kg, 4 mice", "value": 4}, {"measurement": "Number of Survivors on Day 2", "setting": "[2]; IV 70 mg/kg, 4 mice", "value": 4}, {"measurement": "Number of Survivors on Day 3", "setting": "[2]; IV 70 mg/kg, 4 mice", "value": 4}, {"measurement": "Number of Survivors on Day 4", "setting": "[2]; IV 70 mg/kg, 4 mice", "value": 4}, {"measurement": "Number of Survivors on Day 5", "setting": "[2]; IV 70 mg/kg, 4 mice", "value": 4}, {"measurement": "Number of Survivors on Day 0", "setting": "[2]; IV 70 mg/kg, 4 mice", "value": 4}, {"measurement": "Number of Survivors on Day 1", "setting": "[2]; IV 80 mg/kg, 4 mice", "value": 4}, {"measurement": "Number of Survivors on Day 2", "setting": "[2]; IV 80 mg/kg, 4 mice", "value": 4}, {"measurement": "Number of Survivors on Day 3", "setting": "[2]; IV 80 mg/kg, 4 mice", "value": 4}, {"measurement": "Number of Survivors on Day 4", "setting": "[2]; IV 80 mg/kg, 4 mice", "value": 4}, {"measurement": "Number of Survivors on Day 5", "setting": "[2]; IV 80 mg/kg, 4 mice", "value": 4}, {"measurement": "Number of Survivors on Day 0", "setting": "[2]; IV 80 mg/kg, 4 mice", "value": 4}, {"measurement": "Number of Survivors on Day 1", "setting": "[2]; IV 140 mg/kg, 4 mice", "value": 4}, {"measurement": "Number of Survivors on Day 2", "setting": "[2]; IV 140 mg/kg, 4 mice", "value": 4}, {"measurement": "Number of Survivors on Day 3", "setting": "[2]; IV 140 mg/kg, 4 mice", "value": 4}, {"measurement": "Number of Survivors on Day 4", "setting": "[2]; IV 140 mg/kg, 4 mice", "value": 4}, {"measurement": "Number of Survivors on Day 5", "setting": "[2]; IV 140 mg/kg, 4 mice", "value": 4}, {"measurement": "Number of Survivors on Day 7", "setting": "[2]; IV 140 mg/kg, 4 mice", "value": 4}, {"measurement": "Number of Survivors on Day 0", "setting": "[2]; IV 140 mg/kg, 4 mice", "value": 4}, {"measurement": "Number of Survivors on Day 1", "setting": "[2]; IV 160 mg/kg, 4 mice", "value": 4}, {"measurement": "Number of Survivors on Day 2", "setting": "[2]; IV 160 mg/kg, 4 mice", "value": 4}, {"measurement": "Number of Survivors on Day 3", "setting": "[2]; IV 160 mg/kg, 4 mice", "value": 4}, {"measurement": "Number of Survivors on Day 4", "setting": "[2]; IV 160 mg/kg, 4 mice", "value": 4}, {"measurement": "Number of Survivors on Day 5", "setting": "[2]; IV 160 mg/kg, 4 mice", "value": 4}, {"measurement": "Number of Survivors on Day 7", "setting": "[2]; IV 160 mg/kg, 4 mice", "value": 4}, {"measurement": "Number of Survivors on Day 0", "setting": "[2]; IV 160 mg/kg, 4 mice", "value": 4}, {"measurement": "Number of Survivors on Day 1", "setting": "[2]; IV 180 mg/kg, 4 mice", "value": 4}, {"measurement": "Number of Survivors on Day 2", "setting": "[2]; IV 180 mg/kg, 4 mice", "value": 4}, {"measurement": "Number of Survivors on Day 3", "setting": "[2]; IV 180 mg/kg, 4 mice", "value": 4}, {"measurement": "Number of Survivors on Day 4", "setting": "[2]; IV 180 mg/kg, 4 mice", "value": 4}, {"measurement": "Number of Survivors on Day 5", "setting": "[2]; IV 180 mg/kg, 4 mice", "value": 4}, {"measurement": "Number of Survivors on Day 7", "setting": "[2]; IV 180 mg/kg, 4 mice", "value": 4}, {"measurement": "Number of Survivors on Day 0", "setting": "[2]; IV 180 mg/kg, 4 mice", "value": 4}, {"measurement": "Number of Survivors on Day 2", "setting": "[2]; IV 200 mg/kg, 4 mice", "value": 3}, {"measurement": "Number of Survivors on Day 3", "setting": "[2]; IV 200 mg/kg, 4 mice", "value": 3}, {"measurement": "Number of Survivors on Day 4", "setting": "[2]; IV 200 mg/kg, 4 mice", "value": 3}, {"measurement": "Number of Survivors on Day 2", "setting": "[2]; IV 282 mg/kg, 1 mouse", "value": 0}, {"measurement": "Number of Survivors on Day 3", "setting": "[2]; IV 282 mg/kg, 1 mouse", "value": 0}, {"measurement": "Number of Survivors on Day 4", "setting": "[2]; IV 282 mg/kg, 1 mouse", "value": 0}, {"measurement": "LD50", "setting": "[2]; mouse, in vivo, single intravenous bolus, CD-1 mice", "value": "200 to 282", "unit": "mg/kg"}]}]}
